Read-outs that look alike come from different tables or passages of the source.
Columns and labels:
SARS-CoV-1 Mpro [1] = biological target: T1, SARS-CoV-1 Mpro (Severe acute respiratory syndrome-related coronavirus, UniProt P0C6X7); assay: biochemical
SARS-CoV-2 Mpro [2] = biological target: T2, SARS-CoV-2 Mpro (Severe acute respiratory syndrome coronavirus 2, UniProt P0DTD1); assay: rhodamine-based substrate peptide activity assay; format: biochemical
MERS-CoV Mpro [3] = biological target: T3, MERS-CoV Mpro (Betacoronavirus England 1, UniProt K9N7C7); assay: biochemical
T3 sequence (K9N7C7 3248-3553 limits assumed): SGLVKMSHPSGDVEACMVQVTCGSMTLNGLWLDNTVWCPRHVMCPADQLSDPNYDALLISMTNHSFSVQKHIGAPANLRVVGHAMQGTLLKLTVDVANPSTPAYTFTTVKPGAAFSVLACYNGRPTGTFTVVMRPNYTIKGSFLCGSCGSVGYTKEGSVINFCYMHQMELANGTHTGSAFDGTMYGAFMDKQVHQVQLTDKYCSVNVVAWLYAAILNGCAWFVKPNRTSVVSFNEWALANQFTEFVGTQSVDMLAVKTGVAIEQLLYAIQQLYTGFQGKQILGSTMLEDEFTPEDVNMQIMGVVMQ

MERS-CoV Mpro [4] = biological target: T3, MERS-CoV Mpro; assay: biochemical; remark: listed apart in the source
SARS-CoV-2 Mpro [5] = biological target: T2, SARS-CoV-2 Mpro; assay: biochemical
PorCoV-HKU15 Mpro [6] = biological target: T4, PorCoV-HKU15 Mpro (Porcine coronavirus HKU15, UniProt H9BQY4); conditions: covalent
T4 sequence (H9BQY4 2509-2811 limits assumed): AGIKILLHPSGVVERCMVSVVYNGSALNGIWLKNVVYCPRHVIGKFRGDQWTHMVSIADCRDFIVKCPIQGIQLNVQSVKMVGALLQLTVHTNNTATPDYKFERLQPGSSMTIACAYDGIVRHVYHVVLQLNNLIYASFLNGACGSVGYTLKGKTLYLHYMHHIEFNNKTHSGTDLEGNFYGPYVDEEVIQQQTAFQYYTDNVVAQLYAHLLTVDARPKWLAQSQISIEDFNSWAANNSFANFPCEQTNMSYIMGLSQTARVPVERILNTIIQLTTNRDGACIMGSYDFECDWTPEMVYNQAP

HCoV-NL63 Mpro [7] = biological target: T5, HCoV-NL63 Mpro (Human coronavirus NL63, UniProt P0C6X5); assay: biochemical
Target sequence in this assay (P0C6X5 2940-3242 limits assumed): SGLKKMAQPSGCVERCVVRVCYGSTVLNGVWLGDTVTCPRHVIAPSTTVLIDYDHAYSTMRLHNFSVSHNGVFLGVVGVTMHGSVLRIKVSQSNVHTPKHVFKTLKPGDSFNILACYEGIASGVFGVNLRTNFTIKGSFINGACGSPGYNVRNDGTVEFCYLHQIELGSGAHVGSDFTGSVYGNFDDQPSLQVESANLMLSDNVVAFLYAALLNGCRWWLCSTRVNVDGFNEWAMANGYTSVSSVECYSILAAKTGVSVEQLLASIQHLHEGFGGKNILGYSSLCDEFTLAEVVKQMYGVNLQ

HCoV-229E Mpro [8] = biological target: T6, HCoV-229E Mpro (Human coronavirus 229E, UniProt P0C6X1); assay: biochemical
Target sequence in this assay (P0C6X1 2966-3267 limits assumed): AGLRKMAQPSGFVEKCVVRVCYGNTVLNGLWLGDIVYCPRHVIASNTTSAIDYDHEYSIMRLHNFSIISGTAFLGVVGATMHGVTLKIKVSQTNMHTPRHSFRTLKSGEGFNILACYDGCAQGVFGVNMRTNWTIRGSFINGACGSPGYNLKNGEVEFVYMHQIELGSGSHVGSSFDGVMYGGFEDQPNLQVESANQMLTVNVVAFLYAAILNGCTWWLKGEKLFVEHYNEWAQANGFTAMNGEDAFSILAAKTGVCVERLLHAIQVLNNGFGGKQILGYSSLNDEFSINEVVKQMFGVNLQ

HCoV-HKU1 Mpro [9] = biological target: T7, HCoV-HKU1 Mpro (Human coronavirus HKU1 (isolate N1), UniProt P0C6X2); assay: biochemical
Target sequence in this assay (P0C6X2 3335-3637 limits assumed): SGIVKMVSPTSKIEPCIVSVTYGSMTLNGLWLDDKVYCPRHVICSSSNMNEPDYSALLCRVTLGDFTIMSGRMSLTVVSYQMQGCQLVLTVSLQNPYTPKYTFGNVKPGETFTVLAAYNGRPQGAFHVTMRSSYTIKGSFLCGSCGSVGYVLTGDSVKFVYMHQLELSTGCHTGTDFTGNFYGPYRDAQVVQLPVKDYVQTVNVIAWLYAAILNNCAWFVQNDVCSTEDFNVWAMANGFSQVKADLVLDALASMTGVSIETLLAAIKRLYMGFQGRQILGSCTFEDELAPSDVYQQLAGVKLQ

MERS-CoV Mpro [10] = biological target: T3, MERS-CoV Mpro; assay: biochemical; remark: listed apart in the source
HCoV-HKU1 Mpro [11] = biological target: T7, HCoV-HKU1 Mpro; assay: biochemical; remark: listed apart in the source
Target sequence in this assay (P0C6X2 3335-3637): as the sequence (P0C6X2 3335-3637 limits assumed) above

HCoV-229E Mpro [12] = biological target: T6, HCoV-229E Mpro; assay: biochemical; remark: listed apart in the source
Target sequence in this assay (P0C6X1 2966-3267): as the sequence (P0C6X1 2966-3267 limits assumed) above

SARS-CoV-2 Mpro [13] = biological target: T2, SARS-CoV-2 Mpro; assay: biochemical; remark: listed apart in the source
HCoV-NL63 Mpro [14] = biological target: T5, HCoV-NL63 Mpro; assay: biochemical; remark: listed apart in the source
Target sequence in this assay (P0C6X5 2940-3242): as the sequence (P0C6X5 2940-3242 limits assumed) above

PorCoV-HKU15 Mpro [15] = biological target: T4, PorCoV-HKU15 Mpro; conditions: covalent; remark: listed apart in the source
SARS-CoV-2 Mpro [16] = biological target: T2, SARS-CoV-2 Mpro; assay: Mpro substrate activity assay; format: biochemical
HCoV-HKU1 Mpro [17] = biological target: T7, HCoV-HKU1 Mpro; assay: RapidFire MS substrate peptide activity assay; format: biochemical
Target sequence in this assay (P0C6X2 3335-3637): as the sequence (P0C6X2 3335-3637 limits assumed) above

SARS-CoV-1 Mpro [18] = biological target: T1, SARS-CoV-1 Mpro; assay: biochemical; remark: listed apart in the source
HCoV-NL63 Mpro [19] = biological target: T5, HCoV-NL63 Mpro; assay: RapidFire MS substrate peptide activity assay; format: biochemical
Target sequence in this assay (P0C6X5 2940-3242): as the sequence (P0C6X5 2940-3242 limits assumed) above

HCoV-OC43 Mpro = HCoV-OC43 Mpro (Human coronavirus OC43, UniProt P0C6X6); assay: RapidFire MS substrate peptide activity assay; format: biochemical
HCoV-OC43 Mpro, sequence (P0C6X6 3247-3549): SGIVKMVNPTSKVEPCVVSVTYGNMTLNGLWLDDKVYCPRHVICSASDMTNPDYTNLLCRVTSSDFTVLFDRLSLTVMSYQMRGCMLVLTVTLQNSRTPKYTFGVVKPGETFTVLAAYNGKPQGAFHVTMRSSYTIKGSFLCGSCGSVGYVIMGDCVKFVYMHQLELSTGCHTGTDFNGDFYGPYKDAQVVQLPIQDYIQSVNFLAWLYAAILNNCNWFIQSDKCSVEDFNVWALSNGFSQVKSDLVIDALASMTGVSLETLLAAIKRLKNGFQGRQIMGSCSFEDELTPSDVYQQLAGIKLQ

HCoV-229E Mpro [20] = biological target: T6, HCoV-229E Mpro; assay: RapidFire MS substrate peptide activity assay; format: biochemical
Target sequence in this assay (P0C6X1 2966-3267): as the sequence (P0C6X1 2966-3267 limits assumed) above

SARS-CoV-2 Mpro [21] = biological target: T2, SARS-CoV-2 Mpro; assay: RapidFire MS substrate peptide activity assay; format: biochemical
[22] = biological target: avian infectious bronchitis virus (IBV) Mpro (Avian infectious bronchitis virus (strain Beaudette), UniProt P0C6Y1); assay: RapidFire MS substrate peptide activity assay; format: biochemical
avian infectious bronchitis virus (IBV) Mpro, sequence (P0C6Y1 2780-3086): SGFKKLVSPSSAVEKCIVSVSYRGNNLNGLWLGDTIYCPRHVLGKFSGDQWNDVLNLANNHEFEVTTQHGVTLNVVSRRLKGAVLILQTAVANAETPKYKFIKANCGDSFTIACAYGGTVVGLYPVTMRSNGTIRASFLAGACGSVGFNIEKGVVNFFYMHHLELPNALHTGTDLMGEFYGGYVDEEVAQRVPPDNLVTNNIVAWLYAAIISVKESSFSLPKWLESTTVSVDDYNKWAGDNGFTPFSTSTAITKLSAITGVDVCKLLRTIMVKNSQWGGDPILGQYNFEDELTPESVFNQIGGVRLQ

[23] = read-out: HW-1-87A (trans), covalent
[24] = read-out: PM-2-20A (trans), covalent
[25] = read-out: PM-2-27A (trans), covalent
[26] = read-out: hidden head, 8th column, covalent

## O=C(CCl)N1N=C(c2ccccc2)CC1c1cccc2nccnc12 (racemic) [EN82]
SARS-CoV-1 Mpro [1]
  IC50: 59 nM
SARS-CoV-2 Mpro [2]
  IC50: 91 nM
MERS-CoV Mpro [3]
  IC50: 560 nM

## O=C(CCl)N1N=C(c2ccccc2)[C@H](c2ccccc2)[C@H]1c1ccc2nccnc2c1 (relative stereo) [HW-1-87A (trans)]
MERS-CoV Mpro [4]; [23]
  IC50: 340 nM
SARS-CoV-2 Mpro [5]; [23]
  IC50: 85 nM
PorCoV-HKU15 Mpro [6]; read-out: HW-1-87A (trans)
  IC50: 4900 nM
HCoV-NL63 Mpro [7]; [23]
  IC50: 140 nM
HCoV-229E Mpro [8]; [23]
  IC50: 30 nM
HCoV-HKU1 Mpro [9]; [23]
  IC50: 40 nM

## O=C(CCl)N1N=C(c2ccccc2)[C@H](c2ccccc2)[C@@H]1c1ccc2nccnc2c1 (relative stereo) [HW-1-187B, cis-HW-1-187B]
SARS-CoV-2 Mpro [2]
  IC50: 22 nM
MERS-CoV Mpro [10]
  IC50: 1300 nM
HCoV-HKU1 Mpro [11]
  IC50: 16 nM
HCoV-229E Mpro [12]
  IC50: 2.3 nM
SARS-CoV-2 Mpro [13]
  IC50: 1.4 nM
HCoV-NL63 Mpro [14]
  IC50: 56 nM
PorCoV-HKU15 Mpro [15]; read-out: HW-1-187B (cis)
  IC50: 6300 nM

## O=C(CCl)N1N=C(c2cc(Cl)ccc2F)[C@H](c2ccccc2)[C@@H]1c1ccc2nccnc2c1 (relative stereo) [HW-2-010B]
SARS-CoV-2 Mpro [2]
  IC50: 14 nM

## O=C(CCl)N1N=C(c2ccccc2)[C@H](c2ccccc2)[C@H]1c1ccccc1 (relative stereo) [PM-2-20A (trans)]
MERS-CoV Mpro [4]; [24]
  IC50: 3700 nM
SARS-CoV-2 Mpro [5]; [24]
  IC50: 28 nM
PorCoV-HKU15 Mpro [6]; read-out: PM-2-20A (trans)
  IC50: 4800 nM
HCoV-NL63 Mpro [7]; [24]
  IC50: 67 nM
HCoV-229E Mpro [8]; [24]
  IC50: 3.6 nM
HCoV-HKU1 Mpro [9]; [24]
  IC50: 36 nM

## O=C(CCl)N1N=C(c2ccccc2)[C@H](c2ccccc2)[C@@H]1c1ccccc1 (relative stereo) [PM-2-020B, cis-PM-02-020B]
SARS-CoV-2 Mpro [2]
  IC50: 62 nM
MERS-CoV Mpro [10]
  IC50: 2800 nM
HCoV-HKU1 Mpro [11]
  IC50: 200 nM
HCoV-229E Mpro [12]
  IC50: 23 nM
SARS-CoV-2 Mpro [13]
  IC50: 5.3 nM
HCoV-NL63 Mpro [14]
  IC50: 350 nM
PorCoV-HKU15 Mpro [15]; read-out: PM-2-20B (cis)
  IC50: 1100 nM

## O=C(CCl)N1N=C(c2ccccc2)[C@H](c2ccccc2)[C@H]1c1cccc2nccnc12 (relative stereo) [PM-2-27A (trans)]
MERS-CoV Mpro [4]; [25]
  IC50: 3300 nM
SARS-CoV-2 Mpro [5]; [25]
  IC50: 110 nM
PorCoV-HKU15 Mpro [6]; read-out: PM-2-27A (trans)
  IC50: 5400 nM
HCoV-NL63 Mpro [7]; [25]
  IC50: 92 nM
HCoV-229E Mpro [8]; [25]
  IC50: 46 nM
HCoV-HKU1 Mpro [9]; [25]
  IC50: 60 nM

## C=CS(=O)(=O)N1N=C(c2cc(Cl)ccc2F)[C@H](c2ccccc2)[C@@H]1c1ccc2nccnc2c1 (relative stereo) [PM-2-071B]
SARS-CoV-2 Mpro [2]
  IC50: 91 nM

## O=C(CCl)N1N=C(c2ccccc2)C[C@H]1c1cccc2nccnc12 [(S)-EN82]
SARS-CoV-2 Mpro [16]
  IC50: 2700 nM

## C=CS(=O)(=O)N1N=C(c2cc(Cl)ccc2F)[C@@H](c2ccccc2)[C@H]1c1ccc2nccnc2c1 [(S,S)-PM-2-071, (S,S)-enantiomer of PM-2-071B]
SARS-CoV-2 Mpro [2]
  IC50: 35 nM

## O=C(CCl)N1N=C(c2cccc(Cl)c2)CC1c1cccc2nccnc12 (stereo not drawn) [LEB-2-172]
MERS-CoV Mpro [4]
  IC50: 38 nM
SARS-CoV-2 Mpro [5]
  IC50: 0.89 nM
HCoV-NL63 Mpro [7]
  IC50: 11 nM
HCoV-229E Mpro [8]
  IC50: 5.5 nM
HCoV-HKU1 Mpro [9]
  IC50: 0.96 nM

## O=C(CCl)N1N=C(c2cc(F)cc(Cl)c2)CC1c1cccc2nccnc12 (stereo not drawn) [LEB-3-004]
MERS-CoV Mpro [4]
  IC50: 100 nM
SARS-CoV-2 Mpro [5]
  IC50: 1.6 nM
PorCoV-HKU15 Mpro [6]; read-out: LEB-3-004
  IC50: 2100 nM
HCoV-NL63 Mpro [7]
  IC50: 25 nM
HCoV-229E Mpro [8]
  IC50: 5.3 nM
HCoV-HKU1 Mpro [9]
  IC50: 2.3 nM

## O=C(CCl)N1N=C(c2ccccc2)CC1c1cccnc1 (stereo not drawn) [NJH-1-147]
MERS-CoV Mpro [4]
  IC50: 7200 nM
SARS-CoV-2 Mpro [5]
  IC50: 58 nM
PorCoV-HKU15 Mpro [6]; read-out: hidden head, 7th column
  IC50: 11000 nM
HCoV-NL63 Mpro [7]
  IC50: 330 nM
HCoV-229E Mpro [8]
  IC50: 54 nM
HCoV-HKU1 Mpro [9]
  IC50: 26 nM

## O=C(CCl)N1N=C(c2ccccc2)CC1c1ccnc2[nH]ccc12 (stereo not drawn) [NJH-1-159]
MERS-CoV Mpro [4]; [26]
  IC50: 960 nM
SARS-CoV-2 Mpro [5]; [26]
  IC50: 20 nM
PorCoV-HKU15 Mpro [6]; read-out: hidden head, 8th column
  IC50: 9300 nM
HCoV-NL63 Mpro [7]; [26]
  IC50: 110 nM
HCoV-229E Mpro [8]; [26]
  IC50: 19 nM
HCoV-HKU1 Mpro [9]; [26]
  IC50: 8.9 nM

## C=CS(=O)(=O)N1N=C(c2cc(Cl)ccc2F)C(c2ccccc2)C1c1ccc2nccnc2c1 (stereo not drawn) [PM-2-071]
HCoV-HKU1 Mpro [17]
  IC50: < 2 nM
SARS-CoV-1 Mpro [18]
  IC50: < 1000 nM
HCoV-NL63 Mpro [19]
  IC50: < 1000 nM
HCoV-OC43 Mpro
  IC50: < 2 nM
HCoV-229E Mpro [20]
  IC50: < 1000 nM
SARS-CoV-2 Mpro [21]
  IC50: < 2 nM
[22]
  IC50: < 1000 nM

From doi:10.1101/2022.03.05.483025v1 (biorxiv, 2022)
